From PubChem BioAssay (NCI)
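Results reflect a 48-hour exposure of cells in 96-well plates to compound at five concentrations. Abbreviation: GI50, concentration required for 50% inhibition of growth. TGI: concentration producing complete growth inhibition.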

Legend:
Assay in all cases: NCI tumour cell line growth inhibition, 48 h
[1] = system: OVCAR-8 ovarian
[2] = system: SN12C renal
[3] = system: HOP-92 NSCLC
[4] = system: KM20L2 colon
[5] = system: DMS 114 small cell lung
[6] = system: HOP-62 NSCLC
[7] = system: NCI-H226 lung
[8] = system: SK-MEL-2 melanoma
[9] = system: PC-3 prostate
[10] = system: HL-60(TB) leukemia

SMILES	TGI [1] [µM]	TGI [2] [µM]	TGI [3] [µM]	TGI [4] [µM]	TGI [5] [µM]	TGI [6] [µM]	TGI [7] [µM]	TGI [8] [µM]	GI50 [1] [µM]	GI50 [2] [µM]	GI50 [3] [µM]	GI50 [9] [µM]	TGI [9] [µM]	GI50 [6] [µM]	GI50 [7] [µM]	GI50 [8] [µM]	GI50 [10] [µM]	TGI [10] [µM]
Cc1ccc(NC(=O)C(=O)C(C(=O)c2ccc3ccccc3c2)C2OC(=O)c3ccccc32)c(C)c1 (centres undefined)	36.8	53.4	27.8	56	31.7	22.4	15.8	26.8										
CC(CN(C)C)S(=O)(=O)c1ccc(-c2cnc(N)c(C(=O)Nc3ccccc3)n2)cc1 (centres undefined)	> 89.8	27	34.7			36.2	35.4	17.6	10.3	5.09	6.86	10.9	> 73.8	8.16	12.9	4.31	3.05	11
O=C1NC(=O)C(=Cc2c3ccccc3cc3ccccc23)C(=O)N1	> 100	> 100	> 100	> 100		> 100												> 100
Cc1cn(CCC(N)C(=O)O)c(=O)[nH]c1=O (centres undefined)	> 100	> 100	> 100			> 100	> 100	> 100					> 100					> 100
Cc1cc(Br)cc(C)c1NC(=O)C(=O)C(C(=O)c1ccncc1)C1OC(=O)c2ccccc21 (centres undefined)	> 100	> 100	> 100	> 100	> 100	> 100	> 100											> 100
COc1cccc(-n2ncc3c(N/N=C/c4ccc(C)cc4)ncnc32)c1	> 25	> 25	> 25			> 25	> 25	> 25	> 25	> 25	2.14	> 25	> 25	> 25	> 25	> 25	> 25	> 25
Cc1cc2c(c3nocc13)C(=O)c1ccccc1C2=O	> 100	> 100	> 100	> 100	> 100	> 100		> 100										> 100
NCCOCn1cc(Cc2cccc(OCc3ccccc3)c2)c(=O)[nH]c1=O	> 100	> 100	> 100	> 100	> 100		> 100	> 100										> 100
CCCCCCCN(CCCCCCC)C(=N)c1ccnc2ccccc12	3.48	3.49	3			2.65	3.78	3.35	1.63	1.67	1.33	1.39	2.96	1.16	1.88	1.71	1.75	3.7
